From ChEMBL document CHEMBL2429744, “Anticancer activities of an antimicrobial peptide derivative of Ixosin-B amide” (Bioorg Med Chem Lett, 2013)
Activity calls are given as the source filed them. The calls are words filed in the database; no cut-off is given here. Peptide text beside a SMILES is read from it.

Legend:
MCF7 [1] = experiment: Antiproliferative activity against human MCF7 cells assessed as cell viability at 100 uM after 48 hrs by MTT assay; format: functional, cell-based
MCF7 [2] = experiment: Antimigratory activity against human MCF7 cells assessed as inhibition of wound-healing activity at 5 uM after 48 hrs by phase contrast microscopic analysis relative to untreated control; format: functional
MCF7 [3] = experiment: Inhibition of F-actin structural changes in human MCF7 cells at 25 uM after 24 to 48 hrs using AlexaFluor 488 and TRITC staining by confocal microscopic analysis; format: functional, cell-based
MCF7 [4] = experiment: Induction of morphological changes in human MCF7 cells at 1 uM after 24 to 48 hrs by confocal microscopic analysis relative to untreated control; format: functional, cell-based
MCF7 [5] = experiment: Induction of alpha-tubulin mislocalization in human MCF7 cells assessed as appearance of aggregated protein around nucleus at 5 uM after 24 to 48 hrs by confocal microscopic analysis relative to untreated control; format: functional, cell-based
MCF7 [6] = experiment: Antimigratory activity against human MCF7 cells assessed as inhibition of wound-healing activity at 1 uM after 24 hrs by phase contrast microscopic analysis relative to untreated control; format: functional, cell-based
MCF7 [7] = experiment: Ratio of cytotoxic activity to antimigratory activity against human MCF7 cells; format: functional
MCF7 [8] = experiment: Induction of morphological changes in human MCF7 cells assessed as cell shrinkage at 5 uM after 24 to 48 hrs by confocal microscopic analysis relative to untreated control; format: functional, cell-based
MCF7 [9] = experiment: Antiproliferative activity against human MCF7 cells assessed as cell viability after 48 hrs by MTT assay; format: functional, cell-based; conditions: MCF7, 48 h
MCF7 [10] = experiment: Induction of cortical alpha-tubulin structural changes in human MCF7 cells at 25 uM after 24 to 48 hrs using AlexaFluor 488 and TRITC staining by confocal microscopic analysis relative to untreated control; format: functional, cell-based
MCF7 [11] = experiment: Induction of cell death in human MCF7 cells at 25 uM after 24 hrs; format: cell-based; conditions: mcf7, 24 h

Structure (SMILES) | Activity (MCF7 [1]) | inhibition (MCF7 [2]) | inhibition (MCF7 [3]) | Activity (MCF7 [4]) | inhibition at 5 µM (MCF7 [2]; MCF7, 48 h) | Activity (MCF7 [5]) | Activity (MCF7 [6]) | Ratio (MCF7 [7]) | Activity (MCF7 [8]) | IC50 (MCF7 [9]) | inhibition (MCF7 [10]) | Activity (MCF7 [11])
CC(C)C[C@H](NC(=O)[C@H](CCCNC(=N)N)NC(=O)[C@@H](N)CCCCN)C(=O)N[C@@H](CCCNC(=N)N)C(=O)N[C@@H](CCCNC(=N)N)C(=O)N[C@H](C(=O)N[C@@H](Cc1c[nH]c2ccccc12)C(=O)N[C@@H](CCCNC(=N)N)C(=O)N[C@@H](CCCNC(=N)N)C(=O)N[C@@H](Cc1c[nH]c2ccccc12)C(=O)N[C@@H](CCCNC(=N)N)C(N)=O)C(C)C (H-KRLRRVWRRWR-NH2) | inactive | inactive |  |  |  |  |  |  |  |  |  | 
CC(C)C[C@H](NC(=O)[C@H](Cc1c[nH]c2ccccc12)NC(=O)[C@@H](N)CCCCN)C(=O)N[C@@H](CCCNC(=N)N)C(=O)N[C@@H](CCCNC(=N)N)C(=O)N[C@H](C(=O)N[C@@H](Cc1c[nH]c2ccccc12)C(=O)N[C@@H](CCCNC(=N)N)C(=O)N[C@@H](Cc1c[nH]c2ccccc12)C(=O)N[C@@H](Cc1c[nH]c2ccccc12)C(=O)N[C@@H](CCCNC(=N)N)C(N)=O)C(C)C (H-KWLRRVWRWWR-NH2) |  |  | Active | inactive | 40% | Active | inactive | 10 | Active | 61.5 µM | Active | Toxic
